Laboratory results reported in PubChem BioAssay AID2060610 (Molecular Pharmacology Branch, DTP, NCI, 2025).

System: 616215-338-R-J1-PDC complex spheroids, viability % test/control
Experiment: Anticancer human tumor 616215-338-R-J1-PDC patient-derived colon adenocarcinoma cell line growth inhibition [CLK]
Settings: for IC50: curve of first compound; for viability, T/C: stronger effect = lower value
Description: A high-throughput screen of multi-cell type tumor spheroids was designed to identify active combinations of […] and targeted small molecules. Complex spheroids include a stromal component modeled by human endothelial cells (HUVEC) and fibroblasts modeled by human mesenchymal stem cells (MSCs). The concentration ranges selected for each drug and investigational agent were based upon clinically achievable concentrations if the clinical Cmax of the agent was known.
Compounds. The drugs and investigational agents: cirtuvivint (SM08502; NSC835563), CC-671 (NSC850746), vemurafenib (NSC761431), tapotoclax (NSC804041), sotorasib (NSC818433), adagrasib (NSC831453), MRTX-1133 (NSC836407), BAY2416964 (NSC825713), copanlisib (NSC816437), inavolisib (NSC800729), abemaciclib (NSC768073), osimertinib (NSC779217), entinostat (NSC756642), eltanexor (KPT-8602, NSC794443), venetoclax (NSC766270), ceralasertib (NSC777638), bortezomib (NSC756655), olaparib (NSC753686), talazoparib (NSC767125), alisertib (NSC759677), peposertib (NSC802822), gemcitabine (NSC613327), 5-fluorouracil (NSC19893), SN-38 (NSC673596), oxaliplatin (NSC266046), paclitaxel (NSC125973), and doxorubicin (NSC123127), were obtained from the National Cancer Institute (NCI) Developmental Therapeutics Program Chemical Repository. The FDA-approved anticancer drug set is available from the Developmental Therapeutics Program at https://dtp.cancer.gov/organization/dscb/obtaining/available plates.htm. […] The stock solutions were prepared in dimethyl sulfoxide (DMSO, Sigma-Aldrich, St. Louis, MO, cat. D2650), except for the platinum complexes which were prepared in saline (Quality Biological, Gaithersburg, MD, cat. 114-055-101), at 800-fold the tested concentration and stored at -70 degrees C prior to their use. All drugs and investigational agents were tested over a range starting from a high concentration at or near the clinical Cmax and decreasing in half-log increments. If the clinical Cmax for an agent had not been determined, the highest concentration tested was 10 microM.
Cell Culture. All cells were maintained in an incubator at 37 degrees C and 5% CO2 with 95% humidity. The PDC lines were cultured according to standard operating procedures established by the NCI PDMR. Briefly, all PDCs were thawed and cultured in Matrigel-coated flasks prepared with a working solution of 1X Ham's F-12 nutrient mix, without supplementation (Invitrogen, Waltham, MA, cat. 11765054), 100 U/mL penicillin-streptomycin (Invitrogen, cat. 15140122), and 2.5% Matrigel (Corning Inc., Corning, NY, cat. 354248) for the first three passages. The 947758-054-R-J2-PDC line was cultured in 6B/Colon 1A media, which includes advanced DMEM/F-12 (Thermo Fisher Scientific, cat. 12634028), 10 mM HEPES (Thermo Fisher Scientific, cat. 15630080), 1X GlutaMAX supplement (Thermo Fisher Scientific, cat. 35050061), 0.1 mg/mL primocin (InvivoGen, cat. ant-pm-2), 10% defined fetal bovine serum, heat inactivated (HyClone Laboratories Inc., cat. SH30070.03HI), 1.25 mM N-Acetyl-L-cysteine (Sigma-Aldrich, cat. A9165), 10 mM nicotinamide (Sigma-Aldrich, cat. N0636), 1X B-27 supplement (Thermo Fisher Scientific, cat. 17504044), 1X N-2 supplement (Thermo Fisher Scientific, cat. 17502048), and 10 microM Y-27632 dihydrochloride (Tocris Bioscience, cat. 1254). The 876862-298-R-J1-PDC was cultured in 6E media, which includes all 6B/Colon 1A media components plus 50% L-WRN conditioned media (ATCC, cat. CRL-3276), 50 ng/mL recombinant human EGF recombinant protein (hEGF; Thermo Fisher Scientific, cat. PHG0311), 10 ng/mL recombinant human fibroblast growth factor 10 (hGFG-10; PeproTech, cat. 100-26), 1 ng/mL recombinant human fibroblast growth factor 2 (hFGF-2; PeproTech, cat. 100-18B), and 1 µM prostaglandin E2 (PGE2; Tocris, cat. 2296). The 227483-062-R1-J1-PDC line was cultured in Panc media, containing all 6E components except hFGF-2, with the addition of 500 nM SB-431542 (Selleckchem, cat. S1067) and 10 nM gastrin (Tocris, cat. 3006). […]

[1] = second compound 0.0316 µM, first compound 0.0316 µM
[2] = second compound 0.0316 µM, first compound 0.1 µM
[3] = second compound 0.0316 µM, first compound 0.316 µM
[4] = second compound 0.0316 µM, first compound 1 µM
[5] = second compound 0.0316 µM, first compound 3.16 µM
[6] = second compound 0.0316 µM, first compound 10 µM
[7] = second compound 0.1 µM, first compound 0.0316 µM
[8] = second compound 0.1 µM, first compound 0.1 µM
[9] = second compound 0.1 µM, first compound 0.316 µM
[10] = second compound 0.1 µM, first compound 1 µM
[11] = second compound 0.1 µM, first compound 3.16 µM
[12] = second compound 0.1 µM, first compound 10 µM
[13] = second compound 0.316 µM, first compound 0.0316 µM
[14] = second compound 0.316 µM, first compound 0.1 µM
[15] = second compound 0.316 µM, first compound 0.316 µM
[16] = second compound 0.316 µM, first compound 1 µM
[17] = second compound 0.316 µM, first compound 3.16 µM
[18] = second compound 0.316 µM, first compound 10 µM
[19] = second compound 1 µM, first compound 0.0316 µM
[20] = second compound 1 µM, first compound 0.1 µM
[21] = second compound 1 µM, first compound 0.316 µM
[22] = second compound 1 µM, first compound 1 µM
[23] = second compound 1 µM, first compound 3.16 µM
[24] = second compound 1 µM, first compound 10 µM
[25] = second compound 3.16 µM, first compound 0.0316 µM
[26] = second compound 3.16 µM, first compound 0.1 µM
[27] = second compound 3.16 µM, first compound 0.316 µM
[28] = second compound 3.16 µM, first compound 1 µM
[29] = second compound 3.16 µM, first compound 3.16 µM
[30] = second compound 3.16 µM, first compound 10 µM
[31] = second compound 10 µM, first compound 0.0316 µM
[32] = second compound 10 µM, first compound 0.1 µM
[33] = second compound 10 µM, first compound 0.316 µM
[34] = second compound 10 µM, first compound 1 µM
[35] = second compound 10 µM, first compound 3.16 µM
[36] = second compound 10 µM, first compound 10 µM
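Further: spheroids exposed to agents for 7 days.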
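Wherever viability, T/C is given: 100% = DMSO vehicle wells.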

SMILES: C=C(F)C(=O)N1CCN(c2nc(OCC3CCCN3C)nc3c2CCN(c2cccc4cccc(Cl)c24)C3)CC1CC#N (centres undefined) + CNC(=O)c1ccc(Nc2nc(OC3CCCC3)c3c(-c4ccc5nc(C)oc5c4)c[nH]c3n2)c(OC)c1
- IC50 (second compound 0.0316 µM): 5780 nM
- IC50 (second compound 0.1 µM): < 31.6 nM
- IC50 (second compound 0.316 µM): < 31.6 nM
- IC50 (second compound 1 µM): < 31.6 nM
- IC50 (second compound 3.16 µM): < 31.6 nM
- IC50 (second compound 10 µM): < 31.6 nM
- viability, T/C [1]: 95.2%
- viability, T/C [2]: 96.9%
- viability, T/C [3]: 90.9%
- viability, T/C [4]: 104%
- viability, T/C [5]: 106%
- viability, T/C [6]: 5.6%
- viability, T/C [7]: 46%
- viability, T/C [8]: 38.4%
- viability, T/C [9]: 47.9%
- viability, T/C [10]: 46.2%
- viability, T/C [11]: 44.9%
- viability, T/C [12]: 1.3%
- viability, T/C [13]: 48.4%
- viability, T/C [14]: 45.2%
- viability, T/C [15]: 46.6%
- viability, T/C [16]: 40.4%
- viability, T/C [17]: 42.1%
- viability, T/C [18]: 1.18%
- viability, T/C [19]: 49.8%
- viability, T/C [20]: 50.5%
- viability, T/C [21]: 47.5%
- viability, T/C [22]: 42.1%
- viability, T/C [23]: 30.7%
- viability, T/C [24]: 0.72%
- viability, T/C [25]: 42.7%
- viability, T/C [26]: 49.1%
- viability, T/C [27]: 41.2%
- viability, T/C [28]: 31.5%
- viability, T/C [29]: 20.8%
- viability, T/C [30]: 0.22%
- viability, T/C [31]: 45.3%
- viability, T/C [32]: 43%
- viability, T/C [33]: 42.8%
- viability, T/C [34]: 33.2%
- viability, T/C [35]: 16.4%
- viability, T/C [36]: 0.29%

SMILES: CC(Nc1ccc2c(c1)OCCn1cc(N3C(=O)OCC3C(F)F)nc1-2)C(N)=O (centres undefined) + CN1CCN(c2cc(C(=O)Nc3cc4cc(-c5cnn(C)c5)ccc4cn3)ccn2)CC1
- IC50 (second compound 0.0316 µM): > 10000 nM
- IC50 (second compound 0.1 µM): 1980 nM
- IC50 (second compound 0.316 µM): < 31.6 nM
- IC50 (second compound 1 µM): < 31.6 nM
- IC50 (second compound 3.16 µM): < 31.6 nM
- IC50 (second compound 10 µM): < 31.6 nM
- viability, T/C [1]: 94.6%
- viability, T/C [2]: 108%
- viability, T/C [3]: 101%
- viability, T/C [4]: 92%
- viability, T/C [5]: 78.3%
- viability, T/C [6]: 52.4%
- viability, T/C [7]: 105%
- viability, T/C [8]: 97.9%
- viability, T/C [9]: 75%
- viability, T/C [10]: 59.2%
- viability, T/C [11]: 44.7%
- viability, T/C [12]: 38%
- viability, T/C [13]: 26.2%
- viability, T/C [14]: 22%
- viability, T/C [15]: 17.6%
- viability, T/C [16]: 13.8%
- viability, T/C [17]: 12.9%
- viability, T/C [18]: 10.4%
- viability, T/C [19]: 0.14%
- viability, T/C [20]: 0.18%
- viability, T/C [21]: 0.22%
- viability, T/C [22]: 0.1%
- viability, T/C [23]: 0.88%
- viability, T/C [24]: 0.09%
- viability, T/C [25]: 0.11%
- viability, T/C [26]: 0.15%
- viability, T/C [27]: 1.65%
- viability, T/C [28]: 1.21%
- viability, T/C [29]: 1.32%
- viability, T/C [30]: 1.75%
- viability, T/C [31]: 0.13%
- viability, T/C [32]: 0.18%
- viability, T/C [33]: 1.39%
- viability, T/C [34]: 0.23%
- viability, T/C [35]: 0.22%
- viability, T/C [36]: 0.23%
